Results: ChEMBL document CHEMBL6127011, “Design, synthesis, and evaluation of benzodioxolane compounds for antitumor activity” (Bioorg Med Chem Lett, 2024)
Activity calls are given as the source filed them. The calls are words filed in the database; no cut-off is given here.

Columns and labels:
HeLa [1] = experiment: Antiproliferative activity against human HeLa cells by MTT assay; format: functional, cell-based
MDA-MB-231 = experiment: Antiproliferative activity against human MDA-MB-231 cells by MTT assay; format: functional, cell-based
[2] = (§1) Cytotoxicity against human HEK293T cells by MTT assay; format: toxicity, cell-based, HEK-293T; conditions: human, HEK293T cells
HEK-293T = experiment: as §1; format: toxicity, cell-based; conditions: hek-293t; for Activity: human
HeLa [3] = experiment: Inhibition of cell adhesion in human HeLa cells; format: functional, cell-based
HeLa [4] = experiment: Antitumor activity against human HeLa cells xenografted in chicken embryo chorioallantoic membrane assessed as reduction in tumor weight at 2.5 uM (reference value: 39 +/- 1.41 mg); format: functional
[5] = Inhibition of tumor angiogenesis in human HeLa cells xenografted in chick embryo chorioallantoic membrane at 10 uM incubated for 24 hrs; values are per cent of control
HeLa [6] = experiment: Inhibition of cell migration in human HeLa cells assessed as migration rate at 2.5 uM incubated for 24 hrs by transwell assay; values are per cent of control
HeLa [7] = experiment: Antitumor activity against human HeLa cells xenografted in chicken embryo chorioallantoic membrane assessed as reduction in tumor weight at 5 uM (reference value: 39 +/- 1.41 mg); format: functional
HeLa [8] = experiment: Inhibition of colony formation in human HeLa cells at 10 uM incubated for 24 hrs; format: functional
HeLa [9] = experiment: Inhibition of cell migration in human HeLa cells assessed as migration rate at 5 uM incubated for 24 hrs by transwell assay; values are per cent of control
HeLa [10] = experiment: Inhibition of cell adhesion in human HeLa cells at 10 uM; format: functional
[11] = Inhibition of tumor angiogenesis in human HeLa cells xenografted in chick embryo chorioallantoic membrane at 2.5 uM incubated for 24 hrs; values are per cent of control
HeLa [12] = experiment: Inhibition of colony formation in human HeLa cells incubated for 24 hrs; format: functional, cell-based; conditions: dose 2.5-10 µM
[13] = Inhibition of tumor angiogenesis in human HeLa cells xenografted in chick embryo chorioallantoic membrane at 5 uM incubated for 24 hrs; values are per cent of control
HeLa [14] = experiment: Antitumor activity against human HeLa cells xenografted in chicken embryo chorioallantoic membrane assessed as reduction in tumor weight at 10 uM (reference value: 39 +/- 1.41 mg); format: functional
HeLa [15] = experiment: Inhibition of cell migration in human HeLa cells assessed as migration rate at 10 uM incubated for 24 hrs by transwell assay; values are per cent of control

Compound | IC50 (HeLa [1]) [µM] | IC50 (MDA-MB-231) [µM] | IC50 [2] [µM] | also measured
Cc1cn(-c2cc(NC(=O)Cc3ccc4c(c3)OCO4)cc(C(F)(F)F)c2)cn1 | 7.81 | 46.9 | 18.9 | –
COc1cc2c(cc1OC)C(=O)C(CC1CCN(C(=O)/C=C/c3cc4c(cc3Br)OCO4)CC1)C2 (configuration not stated) | 29.5 | 15.2 | – | Activity (HEK-293T): Non-Toxic
Cc1cn(-c2cc(NC(=O)/C=C/C=C/c3ccc4c(c3)OCO4)cc(C(F)(F)F)c2)cn1 | 10.2 | 22.8 | 104 | inhibition (HeLa [3]): Dose-Dependent Effect; Activity (HeLa [4]): 28.5 mg; angiogenesis (% of control) at 10 µM [5]: 61.9%; migration rate (% of control) at 2.5 µM (HeLa [6]): 80.3%; Activity (HeLa [7]): 13.5 mg; inhibition at 10 µM (HeLa [8]): 25.1%; migration rate (% of control) at 5 µM (HeLa [9]): 50.4%; inhibition at 10 µM (HeLa [10]): 16.7%; angiogenesis (% of control) at 2.5 µM [11]: 93.2%; inhibition (HeLa [12]): Dose-Dependent Effect; angiogenesis (% of control) at 5 µM [13]: 78.4%; Activity (HeLa [14]): 7.5 mg; migration rate (% of control) at 10 µM (HeLa [15]): 27.6%
O=C(/C=C/c1ccc2c(c1)OCO2)Nc1cccc2c1CN(C1CCC(=O)NC1=O)C2=O (configuration not stated) | 37.3 | – | – | Activity (MDA-MB-231): inactive; IC50 (HEK-293T): 1440 µM
O=C1CCC(N2Cc3c(NC(=O)c4ccc5c(c4)OCO5)cccc3C2=O)C(=O)N1 (configuration not stated) | 11.5 | 284 | 625 | –
O=C(/C=C/C=C/c1ccc2c(c1)OCO2)Nc1cccc2c1CN(C1CCC(=O)NC1=O)C2=O (configuration not stated) | 50.4 | 80.7 | 81.5 | –
COc1cc2c(cc1OC)C(=O)C(CC1CCN(C(=O)c3ccc4c(c3)OCO4)CC1)C2 (configuration not stated) | 25 | 80.6 | 405 | –
COc1cc2c(cc1OC)C(=O)C(CC1CCN(C(=O)/C=C/c3ccc4c(c3)OCO4)CC1)C2 (configuration not stated) | 18.5 | 105 | 8.03 | –
COc1cc2c(cc1OC)C(=O)C(CC1CCN(C(=O)/C=C/C=C/c3ccc4c(c3)OCO4)CC1)C2 (configuration not stated) | 32.1 | 123 | 61.9 | –
COc1cc2c(cc1OC)C(=O)C(CC1CCN(C(=O)c3ccc4c(c3)OC(F)(F)O4)CC1)C2 (configuration not stated) | 38 | 81.3 | – | Activity (HEK-293T): Non-Toxic
O=C(/C=C/C=C/c1ccc2c(c1)OCO2)N1CCCCC1 [PIPERINE] | 44.4 | 239 | 42.8 | –
O=c1[nH]cc(F)c(=O)[nH]1 [FLUOROURACIL] | 44.6 | 18.1 | 3.21 | angiogenesis (% of control) at 10 µM [5]: 78.8%; inhibition at 10 µM (HeLa [8]): 52.1%; inhibition at 10 µM (HeLa [10]): 55.8%; migration rate (% of control) at 10 µM (HeLa [15]): 47.3%
Cc1cn(-c2cc(NC(=O)c3ccc4c(c3)OCO4)cc(C(F)(F)F)c2)cn1 | 50.6 | 254 | 479 | –
Cc1cn(-c2cc(NC(=O)/C=C/c3ccc4c(c3)OCO4)cc(C(F)(F)F)c2)cn1 | 8.61 | 28.8 | 18.7 | –
O=C1CCC(N2Cc3c(NC(=O)Cc4ccc5c(c4)OCO5)cccc3C2=O)C(=O)N1 (configuration not stated) | 63.2 | – | – | Activity (MDA-MB-231): inactive; IC50 (HEK-293T): 1430 µM
